Earlier results as cited in patent publication US8247435B2, “Formulations for treating human and animal diseases” (priority 2009, dated 2012).
Entries after “also recorded” stand apart in the source; their conditions may differ. Where two headings read alike, the source gives them in different places.

What was measured:
[1] = 300 mg/day, 4 months
[2] = highest dose 3000 mg/day
[3] = oral; MS patients on immunosuppressive or immunomodulatory therapies
Candida = details: 600 mg orally 3 times a day for 15 days
[4] = test system: VEGF-dependent angiogenesis; details: VEGF-expressing CAMs
[5] = humans; not identified at doses used
normal bladder cells = details: normal physiological range of urine excretion (10 μg/ml)
[6] = test system: Reuber H35 hepatoma cells; details: radiation in the presence of genistein; irradiation alone factor 20
[7] = test system: human umbilical vein endothelial cells (HUVECs); details: 10 microM genistein
[8] = test system: HTB-186 medulloblastoma cell line
[9] = not given; remark: listed apart in the source
[10] = test system: non-small cell lung cancer; details: with carboplatin and paclitaxel
[11] = 500 mg/m^2/day
[12] = test system: human vascular endothelial cells; details: doses as low as
[13] = not given; remark: listed apart in the source
ocular neovasculation = details: primates, systemic, twice weekly
Lewis lung carcinoma = details: mice, day 20
[14] = test system: non-small cell lung cancer
[15] = test system: rat 13762 mammary carcinoma; details: single agent, 40 mg/kg
[16] = cancer patients, 145 patients
[17] = not given; remark: listed apart in the source

O=C(O)CCCCC1CCSS1 (stereo not drawn) [ALA, alpha-lipoic acid]
patients who were responders or high responders [1]: 22 of the 39

CC(=O)O[C@H](CC(=O)[O-])C[N+](C)(C)C [ALC, Acetyl-L-carnitine]
side effects and toxicities [2]: no toxicities were noted
patients with decreased fatigue intensity [3]: 63%

COC1=C(OC)C(=O)C(C/C=C(\C)CC/C=C(\C)CC/C=C(\C)CC/C=C(\C)CC/C=C(\C)CC/C=C(\C)CC/C=C(\C)CC/C=C(\C)CC/C=C(\C)CCC=C(C)C)=C(C)C1=O [CoQ10, ubiquinone]
prevalence of memory loss on most recent follow-up (from 8% on initial visit): 4%
prevalence of peripheral neuropathy on most recent follow-up (from 10% on initial visit): 2%
prevalence of dyspnea on most recent follow-up (from 58% on initial visit): 12%
prevalence of myalgia on most recent follow-up (from 64% on initial visit): 6%
prevalence of fatigue on most recent follow-up (from 84% on initial visit, average 240 mg/day, statin discontinued): 16%

CC(=O)N[C@@H](CS)C(=O)O [NAC, N-Acetyl Cysteine]
antifungal activity of peripheral blood monocytes (PBM) (Candida): significantly enhanced
total vessel number relative to VEGF controls [4]: nearly half

COc1cc(/C=C/C(=O)CC(=O)/C=C/c2ccc(O)c(OC)c2)ccc1O [curcumin]
maximum tolerated dose [5]: ≥ 8000 mg per day

O=c1c(-c2ccc(O)cc2)coc2cc(O)cc(O)c12 [genistein, 4′5,7-trihydroxyisoflavone]
toxicity to normal bladder cells (normal bladder cells): not exhibit toxicity
factor by which survival was reduced [6]: 10000
number of genes with altered expression of more than two fold [7]: 256
increase of the antiproliferative effect of cisplatin [8]: 1.3 fold
mean plasma/serum genistein ([9]; American study, Western diet): 5.7 nmol/L
mean plasma/serum genistein ([9]; Japanese study): 248 nmol/L
plasma/serum genistein, range ([9]; Japanese study): 90 to 1204 nmol/L
excretion half-life ([9]; with soy supplementation): seven

Oc1ccc(C=Cc2cc(O)cc(O)c2)cc1 [resveratrol, 3,4′,5-trihydroxystilbene]
levels required for cancer chemopreventive effects in cells in vitro (cells in vitro): at least 5 μM

CC(C)[C@@H](CC[C@@H](C)[C@H]1CC[C@H]2[C@@H]3[C@H](O)C[C@H]4C[C@@H](NCCCNCCCCN)CC[C@]4(C)[C@H]3CC[C@]12C)OS(=O)(=O)O [squalamine]
objective responses, patients ([10]; 300 mg/m^2/day for one or more cycles, response = 50% or greater reduction in tumor size): 36%
patients with an objective response ([10]; all patients (11 of 36)): Thirty-one
plasma concentrations relative to those required for antiangiogenic effects in preclinical studies [11]: at least an order of magnitude higher
tolerability [11]: well tolerated
dose that halted proliferation of human vascular endothelial cells [12]: 160 nM
tolerability ([13]; 384 mg/m^2/day, patients without prior exposure to squalamine): well-tolerated
best-tolerated dose ([13]; continuous intravenous infusion over 120 h, every 14 days, 19 patients): 192 mg/m^2/day
dose producing inhibition of ocular neovasculation and partial regression of new vessels (ocular neovasculation): 12 mg/m^2
number of lung metastases relative to controls (Lewis lung carcinoma): reduced to half; also recorded: reduced by half
patients with dose-limiting toxicity ([14]; 400 mg/m^2/day, arthralgia, myalgia, neutropenia): two of three
tolerability ([14]; continuously daily for 5 days with paclitaxel and carboplatin on day 1): well tolerated
tumor growth delay [15]: modest effect

O=c1[nH]c(=O)n(C2CCCO2)cc1F (stereo not drawn) [tegafur alone, tegafur]
50% survival time [16]: 92 days

Cyanocobalamin [vitamin B12]
amount excreted in the normal urine daily ([17]; in vivo): About 30 mcg
quantity excreted ([17]; injected in a large dose up to 100 mcg): up to 90%

angiostatin
total vessel number relative to VEGF controls [4]: nearly half
